Source: ChEMBL document CHEMBL4130472, “Synthesis of naphthazarin derivatives and identification of novel thioredoxin reductase inhibitor as potential anticancer agent” (Eur J Med Chem, 2017)
Activity calls are given as the source filed them. The calls are words filed in the database; no cut-off is given here.

Legend:
[1] = test system: HL-60; assay: Cytotoxicity in human HL60 cells assessed as reduction in cell viability incubated for 72 hrs by MTT assay; assay type: functional, cell-based; details: HL-60, 72 h
[2] = test system: L02; assay: Cytotoxicity in human L02 cells assessed as reduction in cell viability at 1 to 5 uM incubated for 48 hrs by MTT assay; assay type: cell-based; details: l02, 48 h
[3] = test system: HL-60; assay: Induction of ROS production in human HL60 cells at 1 to 5 uM incubated for 1 hr by DHE staining based fluorescence assay; assay type: functional, cell-based
[4] = test system: HL-60; assay: Reduction in intracellular thiols in human HL60 cells at 1 to 5 uM incubated for 24 hrs by DTNB titration method; assay type: functional, cell-based
[5] = test system: HeLa; assay: Cytotoxicity in human HeLa cells assessed as reduction in cell viability at 1 to 5 uM incubated for 48 hrs by MTT assay; assay type: functional, cell-based
[6] = molecular target: T1, Thioredoxin reductase 1, cytoplasmic (Homo sapiens) (UniProt Q16881); assay: Inhibition of TrxR1 in human HL60 cells incubated for 12 hrs by TRFS-green dye based fluorescence assay; assay type: cell-based
T1 sequence (whole entry): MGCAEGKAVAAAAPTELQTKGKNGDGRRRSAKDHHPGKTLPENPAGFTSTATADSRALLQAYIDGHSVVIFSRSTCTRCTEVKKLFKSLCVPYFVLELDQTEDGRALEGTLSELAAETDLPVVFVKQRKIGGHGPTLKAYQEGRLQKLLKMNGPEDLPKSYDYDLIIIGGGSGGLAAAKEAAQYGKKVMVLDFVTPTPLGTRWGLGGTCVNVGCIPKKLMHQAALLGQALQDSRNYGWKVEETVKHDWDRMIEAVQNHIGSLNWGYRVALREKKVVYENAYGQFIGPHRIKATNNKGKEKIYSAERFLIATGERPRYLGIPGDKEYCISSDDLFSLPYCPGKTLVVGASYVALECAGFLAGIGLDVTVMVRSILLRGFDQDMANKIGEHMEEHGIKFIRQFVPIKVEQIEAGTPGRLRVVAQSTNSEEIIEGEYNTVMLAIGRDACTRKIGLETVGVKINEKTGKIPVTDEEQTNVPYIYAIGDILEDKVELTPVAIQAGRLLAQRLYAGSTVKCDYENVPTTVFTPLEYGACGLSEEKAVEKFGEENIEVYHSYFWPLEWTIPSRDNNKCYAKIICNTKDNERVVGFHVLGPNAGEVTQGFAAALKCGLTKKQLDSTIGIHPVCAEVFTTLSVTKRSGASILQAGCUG

[7] = test system: HEK-293T; assay: Cytotoxicity in HEK293T cells overexpressing TrxR1 (unknown origin) cells assessed as reduction in cell viability at 1 to 5 uM incubated for 48 hrs by MTT assay; assay type: functional, cell-based; details: Homo sapiens
[8] = test system: HL-60; assay: Potentiation of H2O2-induced cytotoxicity in human HL60 cells assessed as induction of cell death at 3 uM incubated for 24 hrs by MTT assay; assay type: functional, cell-based
[9] = test system: HL-60; assay: Reduction in GSH/GSSG ratio in human HL60 cells at 1 to 5 uM incubated for 24 hrs by enzymatic recycling method; assay type: functional, cell-based
[10] = test system: HL-60; assay: Cytotoxicity in human HL60 cells assessed as reduction in cell viability incubated for 48 hrs by trypan blue dye exclusion assay; assay type: functional, cell-based; details: HL-60, 48 h
[11] = test system: HepG2; assay: Cytotoxicity in human HepG2 cells assessed as reduction in cell viability at 1 to 5 uM incubated for 48 hrs by MTT assay; assay type: functional, cell-based
[12] = test system: HL-60; assay: Cytotoxicity in human HL60 cells assessed as reduction in cell viability incubated for 48 hrs by MTT assay; assay type: functional, cell-based; details: HL-60, 48 h
[13] = test system: HL-60; assay: Induction of apoptosis in human HL60 cells assessed as increase in caspase-3 activity at 1 to 3 uM incubated for 24 hrs using Ac-DEVD-pNA substrate by colorimetric assay; assay type: functional, cell-based
[14] = test system: HL-60; assay: Induction of apoptosis in human HL60 cells assessed as increase in caspase-3 activity at 5 uM incubated for 24 hrs using Ac-DEVD-pNA substrate by colorimetric assay; assay type: functional, cell-based
[15] = test system: HL-60; assay: Induction of apoptosis in human HL60 cells 3 uM incubated for 24 hrs by Annexin V/propidium iodide staining based flow cytometry; assay type: functional
[16] = test system: HL-60; assay: Induction of apoptosis in human HL60 cells 0.5 uM incubated for 24 hrs by Annexin V/propidium iodide staining based flow cytometry; assay type: functional
[17] = test system: HL-60; assay: Induction of apoptosis in human HL60 cells 0.5 to 5 uM incubated for 24 hrs in presence of NAC by Annexin V/propidium iodide staining based flow cytometry; assay type: functional, cell-based
[18] = test system: HL-60; assay: Cytotoxicity in human HL60 cells assessed as cell viability at 20 uM incubated for 48 hrs by MTT assay; assay type: functional; details: HL-60, 48 h, read-out: Activity
[19] = test system: HL-60; assay: Cytotoxicity in human HL60 cells assessed as cell viability at 1 to 5 uM incubated for 24 hrs by MTT assay; assay type: functional, cell-based
[20] = test system: HL-60; assay: Induction of apoptosis in human HL60 cells 1 uM incubated for 24 hrs by Annexin V/propidium iodide staining based flow cytometry; assay type: functional
[21] = test system: HL-60; assay: Cytotoxicity in human HL60 cells assessed as cell viability at 1 to 5 uM incubated for 24 hrs after pre-treatment with […] before compound addition by MTT assay; assay type: functional, cell-based
[22] = test system: HeLa; assay: Cytotoxicity in human HeLa cells transfected with shTrxR1 assessed as reduction in cell viability at 1 to 5 uM incubated for 48 hrs by MTT assay; assay type: functional, cell-based
[23] = molecular target: T2, Thioredoxin reductase 1, cytoplasmic (Homo sapiens, UniProt Q16881); assay: Inhibition of TrxR1 in human HL60 cells incubated for 24 hrs by endpoint insulin reduction assay; assay type: cell-based
T2 sequence (Q16881 whole entry): T1 sequence (whole entry)

[24] = test system: HL-60; assay: Cytotoxicity in human HL60 cells assessed as induction of cell death at 1 uM incubated for 24 hrs by MTT assay; assay type: functional
[25] = test system: HL-60; assay: Induction of ROS production in human HL60 cells at 1 to 5 uM incubated for 1 hr by DCFH-DA staining based fluorescence assay; assay type: functional, cell-based
[26] = test system: HEK-293T; assay: Cytotoxicity in HEK293T cells transfected with pIRESneo construct assessed as reduction in cell viability at 1 to 5 uM incubated for 48 hrs by MTT assay; assay type: functional, cell-based; details: Homo sapiens

In the case of `CC1=CC(=O)c2c(O)ccc(O)c2C1=O`, the IC50 [1] is reported as 640 nM, the Activity [2] is reported as “Non-Toxic” and the Activity [3] is reported as “Dose-dependent effect”. The Activity [4] was “Active”, the Activity [5] was “Active” and the inhibition [6] was “Dose-dependent effect”. For the same molecule, the Activity [7] was “inactive”, the Activity [8] was “Active” and the Activity [9] was “Dose-dependent effect”. For the same molecule, the IC50 [10] was 860 nM, the Activity [11] was “Active” and the IC50 [12] was 720 nM. For the same molecule, the Activity [13] was “Active”, the Activity [14] was “inactive” and the Activity [15] was 42%. The Activity [16] was 10%, the Activity [17] was “inactive” and the viability at 20 µM [18] was 0%. The Activity [19] was “Active”, the Activity [20] was 23% and the Activity [21] was “inactive”. The Activity [22] was “Active”, the IC50 [23] was 2400 nM and the Activity [24] was 27%. For the same molecule, the Activity [25] was “Active” and the Activity [26] was “Active”.
